According to ChEMBL document CHEMBL1201862, “PubChem BioAssay data set” (2004):
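Protocol summary: plate cells (96-well), add compound at 5 concentrations, incubate 48 h, interpolate endpoints linearly. Here, GI50 denotes the concentration required for 50% inhibition of growth.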 The source made the active and inactive calls. Rule as the data show it: active = GI50 up to about 1.1 µM and inactive = higher.

What was measured:
Experiment in all cases: NCI anticancer screen, dose series, 48 h
CCRF-CEM = test system: CCRF-CEM
HCT-116 = test system: HCT-116
HL-60 = test system: HL-60
HT-29 = test system: HT-29
M14 = test system: M14
NCI-H23 = test system: NCI-H23
OVCAR-5 = test system: OVCAR-5
RPMI-8226 = test system: RPMI-8226
SF-268 = test system: SF-268
SK-MEL-28 = test system: SK-MEL-28
SK-OV-3 = test system: SK-OV-3
SN12C = test system: SN12C
SNB-75 = test system: SNB-75
TK-10 = test system: TK-10
UACC-257 = test system: UACC-257
UACC-62 = test system: UACC-62
K562 = test system: K562
SNB-19 = test system: SNB-19
SK-MEL-2 = test system: SK-MEL-2

Measured: GI50

O=C(C/C=C/c1ccccc1)c1ccccc1
inactive: CCRF-CEM 22.2 µM | HCT-116 17.4 µM | HL-60 16.1 µM | HT-29 18.2 µM | M14 16.2 µM | NCI-H23 15.1 µM | OVCAR-5 28.6 µM | RPMI-8226 28.2 µM | SF-268 20.7 µM | SK-MEL-28 27.2 µM | SK-OV-3 49.5 µM | SN12C 24.3 µM | SNB-75 20.6 µM | TK-10 23.2 µM | UACC-257 21.9 µM | UACC-62 12.6 µM

CCC(CC)C(=O)OC[n+]1ccc(-c2c(COC(=O)NC(C)C)c(COC(=O)NC(C)C)c3n2CCC3)cc1
inactive: CCRF-CEM > 100 µM | HL-60 > 100 µM | K562 > 100 µM | M14 > 100 µM | NCI-H23 > 100 µM | RPMI-8226 > 100 µM | SK-OV-3 > 100 µM | SN12C > 100 µM | SNB-19 > 100 µM | UACC-257 > 100 µM

CCOC(=O)c1csc(NC(=O)C(C)N2CCCC2)n1 (stereo unspecified)
inactive: CCRF-CEM > 100 µM | HT-29 > 100 µM | K562 > 100 µM | M14 > 100 µM | NCI-H23 > 100 µM | OVCAR-5 > 100 µM | RPMI-8226 19.3 µM | SK-MEL-28 > 100 µM | SK-MEL-2 > 100 µM | SK-OV-3 > 100 µM | SNB-19 > 100 µM | SNB-75 > 100 µM | TK-10 > 100 µM | UACC-257 > 100 µM | UACC-62 > 100 µM

Cc1cc2nc3ccccc3n2c2nc(N)ccc12
inactive: CCRF-CEM 38.5 µM | HCT-116 14.8 µM | HL-60 17.6 µM | HT-29 34.3 µM | K562 54.1 µM | M14 48 µM | NCI-H23 43 µM | OVCAR-5 61.2 µM | RPMI-8226 14.8 µM | SF-268 37.1 µM | SK-MEL-2 65.6 µM | SN12C 51.2 µM | SNB-19 20.6 µM | SNB-75 > 100 µM | TK-10 55.8 µM | UACC-257 > 100 µM | UACC-62 39.3 µM

O=C(Nc1ccc(/N=N/c2ccccc2)cc1)Sc1ccccc1C(=O)O
inactive: CCRF-CEM > 10 µM | HCT-116 57.1 µM | HL-60 1.7 µM | HT-29 > 100 µM | K562 > 100 µM | M14 > 100 µM | NCI-H23 > 100 µM | OVCAR-5 > 100 µM | RPMI-8226 > 100 µM | SF-268 > 100 µM | SK-MEL-28 > 100 µM | SK-MEL-2 > 100 µM | SN12C > 100 µM | SNB-19 > 100 µM | SNB-75 > 100 µM | TK-10 > 100 µM | UACC-257 > 100 µM | UACC-62 > 100 µM

COC(=O)C1CCCN1C(=O)OC(C)(C)C (stereo unspecified)
inactive: CCRF-CEM > 100 µM | HCT-116 > 100 µM | HT-29 > 100 µM | K562 > 100 µM | NCI-H23 > 100 µM | OVCAR-5 > 100 µM | SF-268 65.3 µM | SK-MEL-28 > 100 µM | SK-MEL-2 > 100 µM | SK-OV-3 > 100 µM | SN12C > 100 µM | SNB-19 > 100 µM | SNB-75 > 100 µM | TK-10 > 100 µM | UACC-257 > 100 µM | UACC-62 > 100 µM

Nc1nc(O)c2ncn(C3OC(CO)C(O)C3O)c2n1 (stereo unspecified)
inactive: CCRF-CEM 23.9 µM | HCT-116 68.1 µM | HL-60 37.6 µM | HT-29 10.9 µM | K562 81.7 µM | NCI-H23 17.4 µM | OVCAR-5 111 µM | SF-268 74.8 µM | SK-MEL-28 90.8 µM | SK-MEL-2 71.1 µM | SK-OV-3 95.7 µM | SN12C 79.8 µM | SNB-75 15.4 µM | UACC-62 13.3 µM
